Measured values reported in PubChem BioAssay (NCI).
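GI50 is the concentration that inhibits growth by half. TGI: total growth inhibition.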

Tests used:
Test in all cases: DTP human tumour cell line panel, 384-well format
SF-295 CNS = test system: SF-295 CNS
NCI-H460 NSCLC = test system: NCI-H460 NSCLC
M14 melanoma = test system: M14 melanoma
HCT-116 colon = test system: HCT-116 colon
NCI/ADR-RES ovarian = test system: NCI/ADR-RES ovarian
T-47D breast = test system: T-47D breast
HCC-2998 colon = test system: HCC-2998 colon
PC-3 prostate = test system: PC-3 prostate
K-562 leukemia = test system: K-562 leukemia
UO-31 renal = test system: UO-31 renal
EKVX NSCLC = test system: EKVX NSCLC
NCI-H23 lung = test system: NCI-H23 lung
KM12 colon = test system: KM12 colon
U251 glioblastoma = test system: U251 glioblastoma
MDA-MB-231 breast = test system: MDA-MB-231 breast
LOX IMVI melanoma = test system: LOX IMVI melanoma
SK-MEL-5 melanoma = test system: SK-MEL-5 melanoma
SNB-19 CNS = test system: SNB-19 CNS
SK-MEL-28 melanoma = test system: SK-MEL-28 melanoma
HT29 colon = test system: HT29 colon
OVCAR-5 ovarian = test system: OVCAR-5 ovarian
SW-620 colon = test system: SW-620 colon
SK-OV-3 ovarian = test system: SK-OV-3 ovarian
MCF7 breast = test system: MCF7 breast
CAKI-1 renal = test system: CAKI-1 renal
HL-60(TB) leukemia = test system: HL-60(TB) leukemia
HOP-62 NSCLC = test system: HOP-62 NSCLC
NCI-H322M lung = test system: NCI-H322M lung
MALME-3M melanoma = test system: MALME-3M melanoma
OVCAR-3 ovarian = test system: OVCAR-3 ovarian
786-0 renal = test system: 786-0 renal
COLO 205 colon = test system: COLO 205 colon
UACC-62 melanoma = test system: UACC-62 melanoma
DU-145 prostate = test system: DU-145 prostate
MDA-MB-468 breast = test system: MDA-MB-468 breast
CCRF-CEM leukemia = test system: CCRF-CEM leukemia
RPMI-8226 leukemia = test system: RPMI-8226 leukemia
NCI-H226 lung = test system: NCI-H226 lung
NCI-H522 lung = test system: NCI-H522 lung
HS 578T breast = test system: HS 578T breast
A549 NSCLC = test system: A549 NSCLC
MDA-MB-435 melanoma = test system: MDA-MB-435 melanoma
SN12C renal = test system: SN12C renal
SF-268 CNS = test system: SF-268 CNS
SNB-75 CNS = test system: SNB-75 CNS
SF-539 CNS = test system: SF-539 CNS
IGROV1 ovarian = test system: IGROV1 ovarian
OVCAR-4 ovarian = test system: OVCAR-4 ovarian
TK-10 renal = test system: TK-10 renal
MOLT-4 leukemia = test system: MOLT-4 leukemia
ACHN renal = test system: ACHN renal
BT-549 breast = test system: BT-549 breast
A498 renal = test system: A498 renal
HCT-15 colon = test system: HCT-15 colon

With `Cc1ccc(C(=O)N(CCCN)C(c2oc3cc(Cl)ccc3c(=O)c2Cc2ccccc2)C(C)C)cc1` (stereo not drawn) the GI50 (SF-295 CNS) was under 10 nM, the TGI (SF-295 CNS) was 1510 nM and the GI50 (NCI-H460 NSCLC) was under 10 nM. It also gave a TGI (NCI-H460 NSCLC) of under 10 nM, a GI50 (M14 melanoma) of under 10 nM and a TGI (M14 melanoma) of under 10 nM. The GI50 (HCT-116 colon) was under 10 nM, the TGI (HCT-116 colon) was 1210 nM and the GI50 (NCI/ADR-RES ovarian) was 129 nM. The TGI (NCI/ADR-RES ovarian) was 286 nM, the GI50 (T-47D breast) was under 10 nM and the TGI (T-47D breast) was under 10 nM. It also gave a GI50 (HCC-2998 colon) of under 10 nM, a TGI (HCC-2998 colon) of 542 nM and a GI50 (PC-3 prostate) of under 10 nM. For the same compound, the TGI (PC-3 prostate) was 1550 nM, the GI50 (K-562 leukemia) was under 10 nM and the TGI (K-562 leukemia) was under 10 nM. It also gave a GI50 (UO-31 renal) of 1110 nM, a TGI (UO-31 renal) of 2340 nM and a GI50 (EKVX NSCLC) of under 10 nM. For the same compound, the TGI (EKVX NSCLC) was 1920 nM, the GI50 (NCI-H23 lung) was under 10 nM and the TGI (NCI-H23 lung) was under 10 nM. It also gave a GI50 (KM12 colon) of under 10 nM, a TGI (KM12 colon) of 1180 nM and a GI50 (U251 glioblastoma) of under 10 nM. For the same compound, the TGI (U251 glioblastoma) was 1460 nM, the GI50 (MDA-MB-231 breast) was under 10 nM and the TGI (MDA-MB-231 breast) was 1840 nM. For the same compound, the GI50 (LOX IMVI melanoma) was under 10 nM, the TGI (LOX IMVI melanoma) was 1810 nM and the GI50 (SK-MEL-5 melanoma) was under 10 nM. It also gave a TGI (SK-MEL-5 melanoma) of under 10 nM, a GI50 (SNB-19 CNS) of under 10 nM and a TGI (SNB-19 CNS) of 1460 nM. It also gave a GI50 (SK-MEL-28 melanoma) of 1310 nM, a TGI (SK-MEL-28 melanoma) of 2600 nM and a GI50 (HT29 colon) of under 10 nM. For the same compound, the TGI (HT29 colon) was under 10 nM, the GI50 (OVCAR-5 ovarian) was under 10 nM and the TGI (OVCAR-5 ovarian) was 1570 nM. For the same compound, the GI50 (SW-620 colon) was under 10 nM, the TGI (SW-620 colon) was 275 nM and the GI50 (SK-OV-3 ovarian) was under 10 nM. For the same compound, the TGI (SK-OV-3 ovarian) was 1780 nM, the GI50 (MCF7 breast) was under 10 nM and the TGI (MCF7 breast) was 1370 nM. For the same compound, the GI50 (CAKI-1 renal) was under 10 nM, the TGI (CAKI-1 renal) was 1950 nM and the GI50 (HL-60(TB) leukemia) was under 10 nM. For the same compound, the TGI (HL-60(TB) leukemia) was under 10 nM, the GI50 (HOP-62 NSCLC) was under 10 nM and the TGI (HOP-62 NSCLC) was 1760 nM. It also gave a GI50 (NCI-H322M lung) of under 10 nM, a TGI (NCI-H322M lung) of 2030 nM and a GI50 (MALME-3M melanoma) of under 10 nM. It also gave a TGI (MALME-3M melanoma) of 1740 nM, a GI50 (OVCAR-3 ovarian) of under 10 nM and a TGI (OVCAR-3 ovarian) of under 10 nM. It also gave a GI50 ([…]-0 renal) of under 10 nM, a TGI (786-0 renal) of 1390 nM and a GI50 (COLO 205 colon) of under 10 nM. For the same compound, the TGI (COLO 205 colon) was under 10 nM, the GI50 (UACC-62 melanoma) was under 10 nM and the TGI (UACC-62 melanoma) was 1290 nM. It also gave a GI50 (DU-145 prostate) of under 10 nM, a TGI (DU-145 prostate) of 1100 nM and a GI50 (MDA-MB-468 breast) of under 10 nM. For the same compound, the TGI (MDA-MB-468 breast) was under 10 nM, the GI50 (CCRF-CEM leukemia) was under 10 nM and the TGI (CCRF-CEM leukemia) was under 10 nM. It also gave a GI50 (RPMI-8226 leukemia) of under 10 nM, a TGI (RPMI-8226 leukemia) of under 10 nM and a GI50 (NCI-H226 lung) of 1500 nM. The TGI (NCI-H226 lung) was 2840 nM, the GI50 (NCI-H522 lung) was under 10 nM and the TGI (NCI-H522 lung) was under 10 nM. The GI50 (HS 578T breast) was under 10 nM, the TGI (HS 578T breast) was under 10 nM and the GI50 (A549 NSCLC) was under 10 nM. It also gave a TGI (A549 NSCLC) of 1590 nM, a GI50 (MDA-MB-435 melanoma) of under 10 nM and a TGI (MDA-MB-435 melanoma) of under 10 nM. For the same compound, the GI50 (SN12C renal) was under 10 nM, the TGI (SN12C renal) was 1880 nM and the GI50 (SF-268 CNS) was under 10 nM. It also gave a TGI (SF-268 CNS) of under 10 nM, a GI50 (SNB-75 CNS) of under 10 nM and a TGI (SNB-75 CNS) of 1810 nM. The GI50 (SF-539 CNS) was under 10 nM, the TGI (SF-539 CNS) was 1260 nM and the GI50 (IGROV1 ovarian) was 511 nM. It also gave a TGI (IGROV1 ovarian) of 2140 nM, a GI50 (OVCAR-4 ovarian) of 1270 nM and a TGI (OVCAR-4 ovarian) of 2560 nM. It also gave a GI50 (TK-10 renal) of 1540 nM, a TGI (TK-10 renal) of 2900 nM and a GI50 (MOLT-4 leukemia) of under 10 nM. For the same compound, the TGI (MOLT-4 leukemia) was under 10 nM, the GI50 (ACHN renal) was 1160 nM and the TGI (ACHN renal) was 2420 nM. The GI50 (BT-549 breast) was under 10 nM, the TGI (BT-549 breast) was 1360 nM and the GI50 (A498 renal) was 29 nM. The TGI (A498 renal) was 2010 nM, the GI50 (HCT-15 colon) was under 10 nM and the TGI (HCT-15 colon) was 1230 nM.
